For 80 compounds, RP-LC retention time results are on record in the METLIN SMRT retention time set (Domingo-Almenara et al. 2019).

The data set in a line: gradient 5% acetonitrile 3 min, to 50% in 2 min, to 85% in 15 min, held 3 min, 100 µL/min. The settings on record: column: Zorbax Extend-C18 2.1 x 50 mm; eluents: water / acetonitrile, 0.1% formic acid. In short, it runs like this:
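Retention times of pure standards were taken from adduct peaks that were selected by computer and manually inspected. Over 3 months, mixtures of ~100 molecules were run by HPLC–quadrupole time-of-flight mass spectrometry in positive and negative ionization mode. The Zorbax Extend-C18 column (2.1 × 50 mm, 1.8 μm) ran at 100 μL/min in water and acetonitrile, each containing 0.1% formic acid, with 40 μL dead volume and 900 μL dwell volume.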
Regarding `Cc1[nH]c(/C=C2\C(=O)Nc3ccccc32)c(C)c1CCC(=O)O`, the RP-LC retention time was 820 s. With `Cc1ccccc1Nc1c(-c2ccc3c(c2)OCO3)nc2cnccn12` the figure was 860 s; with `COc1ccc(-c2ncc3c(n2)CCN(S(=O)(=O)c2ccc(C)cc2)C3)cc1`, 1050 s; with `Cn1c(N2CCCC(C(=O)Nc3ccc4c(c3)OCCO4)C2)cc(=O)n(C)c1=O` (stereo not given), 663 s. With `Cc1ccc(CNC(=O)c2cn(-c3ccc(NC(=O)C(C)C)cn3)cn2)cc1` the figure was 793 s; with `CCOC(=O)c1noc2nc(C)nc(Nc3cccc(OC)c3)c12`, 801 s; with `O=C(Nc1cc(C(F)(F)F)ccc1Cl)c1ccc2ncsc2c1`, 922 s. As to `Cc1nc2cc(-c3noc(-c4nn(C)c5ccccc45)n3)ccc2o1`, the RP-LC retention time came out at 1040 s.

For the compound `CCn1cc(S(=O)(=O)N2CCO[C@@H](COc3ccccn3)[C@@H]2c2ccccc2)cn1`, the RP-LC retention time came out at 898 s.

In the case of `COc1ccc2c(=O)c(C(=O)c3ccncc3)cn(CC(=O)NC3CCCCC3)c2c1`, the RP-LC retention time stood at 655 s. With `Cc1nc2cc(-c3noc(-c4ccccc4C)n3)ccc2o1` the figure was 640 s; with `Cn1c(C(=O)NCCc2ccccc2)cc2sc(Cl)cc21`, 1050 s. To `O=C(NCCN1CCCCC1)c1ccc2c(=O)n(-c3ccc(F)cc3)c(N3CCCC3)nc2c1` belongs 629 s; to `CCC(C)Nc1nc(-c2ccc(Cl)cc2)nc2ccccc12` (stereo not given), 822 s; to `O=C(CN1C(=O)CCCc2cc(S(=O)(=O)N3CCCCC3)ccc21)NC1CCCCCC1`, 942 s. To `O=C(NC1CCCCCCC1)C1CCCN(c2nc3ccccc3n(Cc3ccccc3)c2=O)C1` (stereo not given) belongs 1370 s. With `COc1cccc2nc3cc(C)c(C)cc3nc12`, the RP-LC retention time is 868 s. To `COc1nccnc1NC1CCN(C(=O)c2cccn2C)CC1` belongs 570 s. With `Brc1c(Br)c(Br)c2[nH]cnc2c1Br` the figure was 979 s; with `Cc1oc(C2CCN(S(=O)(=O)c3ccc(C(C)C)cc3)CC2)nc1C(=O)N(C)C`, 966 s. With `Cc1nnc(C2CCCN(C(=O)c3ccc4nsnc4c3)C2)s1` (stereo not given) the figure was 651 s; with `COc1ccc(CN2C=C(C(=O)OCc3noc(-c4cccc(F)c4)n3)C(C)=NS2(=O)=O)cc1`, 1050 s. The compound `Cc1ccc(-c2cn3c(CC(=O)NCc4ccccc4C)csc3n2)cc1C` displayed an RP-LC retention time of 859 s. With `O=C(NC1CCN(c2cc(-c3cccs3)[nH]n2)C1)c1cccc(Br)c1` (stereo not given) the figure was 796 s. `CCOc1ccc(C(=O)NC2(c3nc(C)no3)CCCCC2)cc1OCC` registered an RP-LC retention time of 903 s. On to `O=C1NCCCCCCN(C(=O)c2ccc3ccccc3n2)[C@H]2C[C@H](C(=O)N3CCc4ccccc4C3)C[C@@H]12`, for which the RP-LC retention time came to 896 s. In turn, `COc1cccc(-n2c(=O)c(C(=O)NC3CCCCC3)c(O)c3cccnc32)c1` registered an RP-LC retention time of 1280 s. To `O=C(COc1ccc2ccccc2c1)Nc1nc(-c2ccccc2)cs1` belongs 1180 s; to `Cc1ccc(C)c(N2CCN(C(=O)C3CCN(S(=O)(=O)c4cccc5nsnc45)CC3)CC2)c1`, 1070 s; to `CCc1ccccc1N1C(=O)CN(S(=O)(=O)CC)CC1(C)C(=O)NCc1ccccc1` (stereo not given), 860 s. For `O=C(Nc1ccc(N2CCN(c3ccccc3)C2=O)nc1)c1ccncc1`, the RP-LC retention time is 689 s. To `O=C(Nc1ccc(F)c(Cl)c1)N1CCc2nc(-c3ccccc3)ncc2C1` belongs 1010 s. With `COC(=O)c1cn(C(=O)c2ccccc2)c2ccccc12` the figure was 1090 s; with `CC(CCc1ccccc1)NC(=O)CN1CCCN(Cc2ccccc2Cl)S1(=O)=O` (stereo not given), 1070 s.

Regarding `O=S1(=O)CCN(c2ccccc2CC(c2c[nH]c3ccccc23)c2c[nH]c3ccccc23)CC1`, the RP-LC retention time turned out to be 964 s. With `COc1ccc(CN2C[C@@H](CO)[C@H](c3ccncc3)C2)cc1OC` the figure was 592 s; with `COc1ccc(Cl)cc1S(=O)(=O)N1CCCC(C)(C(=O)NCc2ccccc2)C1` (stereo not given), 981 s; with `COc1ccc(CN2CCC(NC(=O)c3ccc(C#N)cc3)C2)cn1` (stereo not given), 566 s.

In the case of `CC(C)Oc1ccc(-c2noc(CN3N=NC4C(=O)N(c5ccc(F)cc5)C(=O)C43)n2)cc1` (stereo not given), the RP-LC retention time amounted to 1070 s. To `CC(C)(C)c1cc(N2CCN(c3ccccn3)CC2)n2ncc(-c3ccccc3)c2n1` belongs 1040 s. To `CCCN1CCN(c2cc(C(=O)O)c3cc(NS(=O)(=O)c4cc(C)c(C)cc4C)ccc3n2)CC1` belongs 653 s; to `CCOc1ccc(NC(=O)N(Cc2cccs2)C2CCN(CC)CC2)cc1`, 653 s; to `Cc1cc(Br)ccc1NC(=O)Cn1cnc(C)c(C)c1=O`, 673 s. Turning to `CCNC(=O)CCc1cc2cc(C)ccc2[nH]c1=O`, the RP-LC retention time turned out to be 638 s.

Regarding `O=C(c1cnccn1)N1CC(F)(F)C[C@H]1c1nc(C2CC2)no1`, the RP-LC retention time was 746 s. With `Cn1c(=O)c2nc(SCCC(=O)Nc3c(F)cccc3F)n(C)c2n(C)c1=O` the figure was 706 s.

The compound `O=C(Cc1nnc(-c2ccc3ncccc3c2)o1)NCc1cccc(Cl)c1` displayed an RP-LC retention time of 722 s. With `CCCc1noc(-c2ccnc(-n3ncc(C(=O)NC(C)C)c3C)c2)n1` the figure was 868 s; with `CC(C)NC(=O)c1cccc(N2C(=O)NC3CC2(C)Oc2ccc(Br)cc23)c1` (stereo not given), 793 s; with `CCOc1ccccc1NC(=O)N1CCCC1c1cc(C)on1` (stereo not given), 870 s.

In turn, `Cc1nc2scc(CC(=O)O)n2c(=O)c1C` returned an RP-LC retention time of 592 s. To `CCc1nc2c(=O)n(CC(=O)N3CCN(c4ccccn4)CC3)nc(C)c2s1` belongs 585 s. To `O=C(NC1CC1)c1ccc(CN2CCN(Cc3ccc(F)cc3)C(=O)C2=O)cc1` belongs 673 s. Turning to `O=C(c1cn2cc(Cl)ccc2n1)N1CCN(c2ccc(Cl)cc2)CC1`, the RP-LC retention time worked out at 899 s.

In turn, `CC(=O)Nc1cc2c(cc1Sc1ccc(C)cc1)n(C)c(=O)n2C` gave an RP-LC retention time of 785 s.

`CCNc1cc(N2CCC(CCC(=O)N3CCC(COC)CC3)CC2)ncn1` displayed an RP-LC retention time of 631 s. To `CCC(C)NC(=O)NCCn1c(-c2ccc(C)cc2)nc2cccnc21` (stereo not given) belongs 650 s; to `COCCN(Cc1ccc(F)cc1)Cc1cc(=O)n2cc(Cl)ccc2n1`, 647 s. `CCn1ncc(Br)c1C(=O)Nc1ccccc1Cl`: the RP-LC retention time stood at 1090 s.

As for `CC1CCN(S(=O)(=O)c2cccnc2Nc2ccc(Cl)cc2)CC1`, the RP-LC retention time stood at 1370 s. To `O=C(NCC1CC(=O)N(Cc2ccccc2)C1)c1cccc(Cl)c1` (stereo not given) belongs 727 s; to `COCCCNc1c(-c2cccc(F)c2)nc2sc(C(N)=O)c(C)n12`, 741 s; to `COCC(=O)Nc1ccc2c(c1)CN(S(C)(=O)=O)CCO2`, 641 s. To `Cc1ccc(S(=O)(=O)N2CCC(n3cnc4ccc(C)cc4c3=O)CC2)c(C)c1` belongs 988 s; to `Cc1nc(-c2ccccc2OC2CN(S(=O)(=O)c3c(C)noc3C)C2)no1`, 904 s; to `CC(C)CCNC(=O)c1cn(C)nc1S(=O)(=O)N1CCSCC1`, 900 s.

In the case of `O=c1c(NC2CCCCCC2)nc2ccncc2n1Cc1ccccc1`, the RP-LC retention time was 807 s. With `OC1CCC12CCN(Cc1cn[nH]c1-c1ccccc1)CC2` (stereo not given) the figure was 568 s; with `CCCNC(=O)C1CCN(c2ccc(SCC(=O)NCc3ccc(C)cc3)nn2)CC1`, 656 s. Compound `CCCC1c2nccn2CCCN1C(=O)c1ocnc1C` (stereo not given) registered an RP-LC retention time of 558 s. In turn, `O=S(=O)(c1cccc2nsnc12)N1CCCC(Cc2noc(C3CC3)n2)C1` (stereo not given) displayed an RP-LC retention time of 923 s. To `O=C(c1cccc(Cl)c1)N1CCc2cc(-c3ccno3)ccc21` belongs 999 s; to `CC1CCC(NC(=O)c2nnc(-c3ccc(S(=O)(=O)N4CCCC4)cc3)o2)CC1` (stereo not given), 1020 s; to `CCOc1cc(=O)n2c(c1C(=O)NCCCN1CCCc3ccccc31)CCCCC2`, 733 s. To `Cc1ccc(C(=O)N2CCN(c3cc(-c4cccs4)[nH]n3)CC2)c(C)c1` belongs 831 s; to `Cc1cc(C)nc(NS(=O)(=O)c2ccc(NC(=O)c3ccc(Cl)s3)cc2)n1`, 755 s. To `COC(=O)c1c(C)[nH]c(C(=O)N2CCCC(C(=O)NCc3ccc(Cl)cc3)C2)c1C` (stereo not given) belongs 809 s. `COC(=O)c1ccccc1NC(=O)CSc1nccc(N2CCN(c3cccc(OC)c3)CC2)n1` had an RP-LC retention time of 695 s.

Consider `CN(C)CCNC(=O)c1ccc(CS(=O)c2ccc(Br)cc2)o1` (stereo not given), for which the RP-LC retention time was found to be 590 s.

`Cc1nn(C(C)C(=O)NCCCN2CCc3ccccc3C2)c(=O)c2c(C)n(-c3ccccc3)nc12` (stereo not given): the RP-LC retention time was 690 s.
